Data: US20090270452A1, “USE OF SOLUBLE EPOXIDE HYDROLASE INHIBITORS IN THE TREATMENT OF SMOOTH MUSCLE DISORDERS” (Arete Therapeutics, Inc., priority 2008, published 2009)

Key:
[1] = tested on: rat corpus cavernosual strips; settings: cited from earlier work; for phenylephrine (PE) induced contraction of the cavernosual strips: preincubation with the inhibitor
[2] = tested on: rabbit corpus cavernosum smooth muscle strips; assay: Relaxation of isolated rabbit corpus cavernosum smooth muscle strips (pressure transducer); format: cell-based; settings: 10 minutes
Protocol: A study was performed using freshly isolated rabbit corpus cavernosum smooth muscle strips attached to a pressure transducer in a temperature controlled bath, to evaluate the efficacy of 1-adamantyl-3-(1-(methylsulfonyl)piperidin-4-yl)urea (Compound 1) for the treatment of erectile dysfunction.
The isolated rabbit corpus cavernosum strips were exposed to Compound 1 and/or 14,15-epoxyeicosatrienoic acid (14,15-EET) at 1 μM or 10 μM concentrations for 10 minutes. The relaxation of each strip was measured by pressure transduction. The percent relaxation was determined relative to a control strip incubated with sodium nitroprusside (SNP) of the formula Na2[Fe(CN)5NO].2H2O, SNP is a compound that serves as a source of nitric oxide, a potent peripheral vasodilator. All experimental conditions were done in duplicate.

rat mesenteric arteries [3] = assay: Vasorelaxation of rat mesenteric arteries pre-contracted with U46619 or high KCl (myograph); format: cell-based
Protocol: Additional experiments were performed wherein the pre-contraction of the mesenteric arteries was induced by pre-incubation with either 0.1-1.0 μM U46619 (9,11-dideoxy-9α,11α-methanoepoxy Prostaglandin F2α, […]). The pre-contracted arteries were exposed to 2 μM, 10 μM, 50 μM, 100 μM, 500 μM or 1000 μM of Compound 2 and the level of relaxation was measured by myograph. […] The amount of relaxation induced by Compound 2 was consistent between the vessels pre-contracted by U46619 and high KCl.

rat arteries [4] = assay: Ach-induced relaxation of isolated arteries from angiotensin II infused rats after in vitro pre-incubation (myograph); format: cell-based; settings: arteries of ANG II infused rats, pre-incubation with 100 μM compound for 90 minutes; 2% without compound
Protocol: The efficacy of 1-(1-nicotinoylpiperidin-4-yl)-3-(4-(trifluoromethoxy)phenyl)urea (Compound 2) and 1-adamantyl-3-(1-acetylpiperidin-4-yl)urea (Compound 3) to effect vasorelaxation of rat arteries in vitro and in vivo was examined. Rats were infused with angiotensin II (ANG II) for 4 weeks resulting in a reduced vasorelaxation response to acetylcholine (Ach), a neurotransmitter known to cause endothelium-dependent vasodilation of arteries. Ach-induced relaxation was measured by myograph.

rat arteries [5] = assay: Ach-induced relaxation of arteries from angiotensin II rats co-treated in vivo (myograph); settings: ANG II rats
Protocol: Additionally, in vivo attenuation of the effects of ANG II by Compound 2 or Compound 3 was examined. Rats were administered ANG II for 2 weeks and co-administered ANG II and either 10 mg of Compound 2 once a day by oral gavage or 30 mg of Compound 3 per day dose in drinking water for 2 weeks. Ach induced relaxation was measured by myograph.

arteries from SHR = assay: Aortic relaxation of isolated arteries from spontaneously hypertensive rats (SHR) to Ach or SNP after pre-incubation (myograph); format: cell-based, rat; settings: pre-incubation with 100 μM compound for 90 minutes
rat mesenteric arteries [6] = assay: Direct vasorelaxation of rat mesenteric arteries with intact or denuded endothelium (wired myograph); format: cell-based
Protocol: The efficacy of the 1-(1-nicotinoylpiperidin-4-yl)-3-(4-(trifluoromethoxy)phenyl)urea (Compound 2) to directly effect vasorelaxation of rat mesenteric arteries was examined. Rat mesenteric arteries with intact and denuded endothelium were isolated under microscope. Both intact and denuded arteries were exposed to various concentrations of Compound 2 (2 μM, 10 μM, 50 μM, 100 μM, 500 μM or 1000 μM) and the amount of relaxation was measured by a wired myograph.

Molecule: CCCCc1ccc(N=CN)c(C)c1 [N′-(4-dutyl-2-methyl-phenyl)-foramidine]
- phenylephrine (PE) induced contraction of the cavernosual strips [1]: attenuated

Molecule: CS(=O)(=O)N1CCC(NC(=O)NC23CC4CC(CC(C4)C2)C3)CC1 [Compound 1, 1-adamantyl-3-(1-(methylsulfonyl)piperidin-4-yl)urea]
- percent relaxation of corpus cavernosum strip ([2]; 1 μM of both Compound 1 and 14,15-EET, relative to SNP control strip): 15%
- percent relaxation of corpus cavernosum strip ([2]; 10 μM of both Compound 1 and 14,15-EET, relative to SNP control strip): 22%
- relaxation of corpus cavernosum strip ([2]; Compound 1 alone, 1 μM or 10 μM, relative to SNP control strip): did not induce relaxation

Molecule: epoxyeicosatrienoic acids [EETs]
- EC50 ([1]; normal, old and diabetic rat corpus cavernosual strips, read-out: apparent EC50 of relaxation): 10 nM
- Emax of relaxation ([1]; normal, old and diabetic rat strips, depending on the system): 30-70%

Molecule: CCCCCC1OC1CC=CCC=CCC=CCCCC(=O)O (stereo not shown) [14,15-EET, 14,15-epoxyeicosatrienoic acid, reference compound]
- relaxation of corpus cavernosum strip ([2]; 14,15-EET alone, 1 μM): no effect
- relaxation of corpus cavernosum strip ([2]; 14,15-EET alone, 10 μM, in one of the two experiments): 7%
- EET-induced vasorelaxation in vessels precontracted with high KCl (rat mesenteric arteries [3]; pre-contracted with high KCl (100 mM per FIG. 3A)): completely blocked

Molecule: CC(=O)N1CCC(NC(=O)NC23CC4CC(CC(C4)C2)C3)CC1 [Compound 3, 1-adamantyl-3-(1-acetylpiperidin-4-yl)urea]
- percent relaxation with 100 nM Ach (rat arteries [4]): 70%
- response to Ach-induced relaxation after in vivo co-administration (rat arteries [5]; 30 mg per day dose in drinking water for 2 weeks): significantly improved dose dependent response to Ach
- percent relaxation induced by 10 μM Ach (arteries from SHR; vehicle 65%): 90%
- percent relaxation induced by 100 nM SNP (arteries from SHR; vehicle 70%): 95%

Molecule: CCCCCCCCCCCCNC(=O)NC1CCCCC1 [1-cyclodexy-3-dodecyl-urea]
- phenylephrine (PE) induced contraction of the cavernosual strips [1]: attenuated

Molecule: O=C(Nc1ccc(OC(F)(F)F)cc1)NC1CCN(C(=O)c2cccnc2)CC1 [Compound 2, 1-(1-nicotinoylpiperidin-4-yl)-3-(4-(trifluoromethoxy)phenyl)urea]
- percent relaxation of mesenteric arteries (rat mesenteric arteries [6]; 10 μM of compound): 5%
- percent relaxation of mesenteric arteries (rat mesenteric arteries [6]; 100 μM of compound): 60%
- relaxation of pre-contracted mesenteric arteries (rat mesenteric arteries [3]; 2-1000 μM, pre-contracted by 0.1-1.0 μM U46619 or 127 mM KCl, consistent between both): dose dependent effect
- percent relaxation with 100 nM Ach (rat arteries [4]): 30%
- response to Ach-induced relaxation after in vivo co-administration (rat arteries [5]; 10 mg once a day by oral gavage for 2 weeks): significantly improved dose dependent response to Ach
